Target: T1, PPARδ (Homo sapiens, UniProt Q03181)
T1 sequence (Q03181 171-441 limits assumed): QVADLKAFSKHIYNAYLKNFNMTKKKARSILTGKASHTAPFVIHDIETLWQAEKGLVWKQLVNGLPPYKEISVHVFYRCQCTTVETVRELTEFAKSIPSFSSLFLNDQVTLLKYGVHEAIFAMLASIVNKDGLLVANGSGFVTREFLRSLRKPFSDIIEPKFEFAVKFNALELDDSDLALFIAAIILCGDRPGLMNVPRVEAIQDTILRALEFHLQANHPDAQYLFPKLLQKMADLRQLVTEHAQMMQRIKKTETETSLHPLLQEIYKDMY
Assay: Transfection Assay for PPARδ Receptors (PPAR-Gal4 receptor / Gal4-Luciferase Reporter, HEK293 cells)
Type: cell-based
Conditions: for PPARδ FI: fold induction, unbracketed values, PPARδ standard FI = 36.1
Procedure: Transfection Assay for PPARδ Receptors
HEK293 cells were grown in DMEM/F-12 Media supplemented with 10% FBS and glutamine (GIBCOBRL). The cells were co-transfected with DNA for PPAR-Gal4 receptor and Gal4-Luciferase Reporter using the DMRIE-C Reagent. On the following day, the DNA-containing medium were replaced with 5% Charcoal treated FBS growth medium. After six hours, cells were seeded in 96 well plate and incubated at 37° C. in CO2 incubator overnight. Cells were challenged by test compounds and incubated for 24 hours at 37° C. in 5% CO2 incubator. Luciferase activity was assayed using the Steady-Glo Luciferase Assay Kit from Promega. DMRIE-C Reagent was purchased from GIBCO Cat. No. 10459-014. OPTI-MEM I Reduced Serum Medium was purchased from GIBCO Cat. No. 31985. Steady-Glo Luciferase Assay Kit was obtained from Promega Part# E254B.

PPARδ FI	EC50 (bracketed values) [µM]	SMILES
1.2		CCCCCCN(C(=O)Nc1ccc(SC(F)(F)F)cc1)C1Cc2ccc(SC(C)(C)C(=O)O)cc2C1 (stereo not drawn) [Example 15, 2-Methyl-2-{2-[1-hexyl-3-(4-trifluoromethylsulfanylphenyl)ureido]indan-5-ylsulfanyl}propionic acid]
1.4		C=CCCCN(C(=O)Nc1ccc(OC(F)(F)F)cc1)C1Cc2ccc(SC(C)(C)C(=O)O)cc2C1 (stereo not drawn) [Example 19, 2-Methy-2-{2-[1-pent-4-enyl-3-(4-trifluoromethoxyphenyl)ureido]indan-5-ylsulfanyl}propionic acid]
4.5		CCN(C(=O)Nc1ccc(OC(F)(F)F)c(Br)c1)C1Cc2ccc(SC(C)(C)C(=O)O)cc2C1 (stereo not drawn) [Example 25, 2-{2-[3-(3-Bromo-4-trifluoromethoxyphenyl)-1-ethylureido]indan-5-ylsulfanyl}-2-methylpropionic acid]
2.1		CCN(C(=O)Nc1cccc(OC(F)(F)F)c1)C1Cc2ccc(SC(C)(C)C(=O)O)cc2C1 (stereo not drawn) [Example 26, 2-{2-[1-Ethyl-3-(3-trifluoromethoxyphenyl)ureido]indan-5-ylsulfanyl}-2-methylpropionic acid]
8.2		CC(C)(Sc1ccc2c(c1)CC(N(CCCC1CCCC1)C(=O)Nc1ccc(OC(F)(F)F)cc1)C2)C(=O)O (stereo not drawn) [Example 28, 2-{2-[1-(3-Cyclopentylpropyl)-3-(4-trifluoromethoxyphenyl)ureido]indan-5-ylsulfanyl}-2-methylpropionic acid]
1.5		CCCN(C(=O)Nc1ccc(OC)cc1)C1Cc2ccc(SC(C)(C)C(=O)O)cc2C1 (stereo not drawn) [Example 32, 2-{2-[3-(4-Methoxyphenyl)-1-propylureido]indan-5-ylsulfanyl}-2-methylpropionic acid]
0.8		CCCN(C(=O)Nc1cc(C)cc(C)c1)C1Cc2ccc(SC(C)(C)C(=O)O)cc2C1 (stereo not drawn) [Example 33, 2-{2-[3-(3,5-Dimethylphenyl)-1-propylureido]indan-5-ylsulfanyl}-2-methylpropionic acid]
5.6		CCCN(C(=O)Nc1ccc(C(F)(F)F)cc1)C1Cc2ccc(SC(C)(C)C(=O)O)cc2C1 (stereo not drawn) [Example 35, 2-Methyl-2-{2-[1-propyl-3-(4-trifluoromethylphenyl)ureido]indan-5-ylsulfanyl}-propionic acid]
1.9		CC(C)(Sc1ccc2c(c1)CC(N(CCCC1CCCC1)C(=O)Nc1ccccc1)C2)C(=O)O (stereo not drawn) [Example 37, 2-{2-[1-(3-Cyclopentylpropyl)-3-phenylureido]indan-5-ylsulfanyl}-2-methylpropionic acid]
9.3		CCCCCN(C(=O)Nc1ccc2ccccc2c1)C1Cc2ccc(SC(C)(C)C(=O)O)cc2C1 (stereo not drawn) [Example 39, 2-Methyl-2-[2-(3-naphthalen-2-yl-1-pentylureido)indan-5-ylsulfanyl]propionic acid]
6.0		CCCN(C(=O)Nc1ccc(OC(F)(F)F)cc1)C1CCc2ccc(SC(C)(C)C(=O)O)cc2C1 (stereo not drawn) [Example 46, 2-Methyl-2-{7-[1-propyl-3-(4-trifluoromethoxyphenyl)ureido}-5,6,7,8-tetrahydronaphthalen-2-ylsulfanyl}propionic acid]
	> 3	CCN(C(=O)Nc1ccc(C(C)(C)C)cc1)C1CCc2cc(SC(C)(C)C(=O)O)c(OC)cc2C1 (stereo not drawn) [Example 49, 2-{6-[3-(4-tert-Butylphenyl)1-ethylureido]-3-methoxy-5,6,7,8-tetrahydronaphthalen-2-ylsulfanyl}-2-methylpropionic acid]

Reference: patent US20060094786A1, “Treating syndrome X with substituted tetralins and indanes” (priority 2002, published 2006)
